This passage reports speed of sound, mass density and refractive index results from the NIST ThermoML archive (doi:10.1021/je9005618).

± gives the expanded uncertainty stated by the source.

The conditions of series [1]: 101.33 kPa, Liquid; for speed of sound: Pulse-echo method; for mass density: Vibrating tube method.
A short description of series [2]: refractive index (Na D-line) (dimensionless). To be noted: 101.33 kPa, Liquid, Standard Abbe refractometry.

For the compound `COC(C)=O` [methyl ethanoate], the speed of sound in series [1] (278.15 K) amounted to 1243.5 ± 0.81 m/s; in series [1] (288.15 K), 1196.8 ± 0.8 m/s; in series [1] (298.15 K), 1150.7 ± 0.78 m/s; in series [1] (308.15 K) it was 1104.7 ± 0.77 m/s; in series [1] (318.15 K) it was 1059.2 ± 0.75 m/s. The mass density in series [1] (278.15 K) worked out at 953.04 ± 0.09 kg/m3; in series [1] (288.15 K), 940.12 ± 0.1 kg/m3; in series [1] (298.15 K), 927.01 ± 0.1 kg/m3; in series [1] (308.15 K), 913.68 ± 0.11 kg/m3; in series [1] (318.15 K), 900.13 ± 0.11 kg/m3. Also, the refractive index in series [2] (288.15 K) is listed as 1.36414 ± 0.00033; in series [2] (298.15 K), 1.35881 ± 0.00033; in series [2] (308.15 K), 1.35367 ± 0.00033; in series [2] (318.15 K), 1.34823 ± 0.00033.

`CC(C)=O` [acetone]: the speed of sound is listed as 1256.5 ± 1.2 m/s in series [1] (278.15 K); 1210.7 ± 1.2 m/s in series [1] (288.15 K); 1165 ± 1.2 m/s in series [1] (298.15 K); 1118.5 ± 1.2 m/s in series [1] (308.15 K); 1073.7 ± 1.1 m/s in series [1] (318.15 K). For the same compound, the mass density stood at 807.41 ± 0.24 kg/m3 in series [1] (278.15 K); 796.14 ± 0.24 kg/m3 in series [1] (288.15 K); 784.76 ± 0.24 kg/m3 in series [1] (298.15 K); 773.21 ± 0.24 kg/m3 in series [1] (308.15 K); 761.47 ± 0.24 kg/m3 in series [1] (318.15 K). The refractive index in series [2] (288.15 K) is recorded as 1.36146 ± 0.001; in series [2] (298.15 K), 1.35597 ± 0.001; in series [2] (308.15 K), 1.35054 ± 0.001; in series [2] (318.15 K), 1.34491 ± 0.001.

For `CCn1cc[n+](C)c1.O=S(=O)([O-])C(F)(F)F` [1-ethyl-3-methylimidazolium trifluoromethanesulfonate], the refractive index stood at 1.43599 ± 0.00051 in series [2] (288.15 K); 1.4332 ± 0.00051 in series [2] (298.15 K); 1.4304 ± 0.00051 in series [2] (308.15 K); 1.42767 ± 0.00051 in series [2] (318.15 K); 1.42494 ± 0.00051 in series [2] (328.15 K).

Turning to `CCOC(C)=O` [ethyl acetate], the speed of sound in series [1] (278.15 K) came out at 1231 ± 1.2 m/s; in series [1] (288.15 K) it was 1185.2 ± 1.2 m/s; in series [1] (298.15 K), 1140 ± 1.2 m/s; in series [1] (308.15 K) it was 1095.3 ± 1.2 m/s; in series [1] (318.15 K), 1051 ± 1.1 m/s; in series [1] (328.15 K), 1007.4 ± 1.1 m/s. Moreover, the mass density came out at 918.5 ± 0.23 kg/m3 in series [1] (278.15 K); 906.48 ± 0.23 kg/m3 in series [1] (288.15 K); 894.33 ± 0.23 kg/m3 in series [1] (298.15 K); 882.02 ± 0.23 kg/m3 in series [1] (308.15 K); 869.52 ± 0.23 kg/m3 in series [1] (318.15 K); 856.85 ± 0.23 kg/m3 in series [1] (328.15 K). The refractive index in series [2] (288.15 K) was 1.37519 ± 0.00037; in series [2] (298.15 K), 1.36994 ± 0.00037; in series [2] (308.15 K), 1.3646 ± 0.00037; in series [2] (318.15 K) it was 1.35919 ± 0.00037; in series [2] (328.15 K), 1.35368 ± 0.00037.
